Experimental findings from US9758485B2, “Compounds for controlling arthropods” (priority 2013, dated 2017) are described below.

The test system of one data set is Musca domestica. Kind of data set: Musca domestica test. Format: in vivo. The conditions noted are these: application rate 100 ppm; adult houseflies; kill after 2 days. A digest of the protocol:
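10 adult flies per vessel; sugar-solution sponge dosed with active ingredient formulation (DMSO concentrate diluted in water to desired concentration). Read-out: % kill at 2 days.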

The test system of another data set is Rhipicephalus sanguineus. The data set can be described thus: Rhipicephalus sanguineus - in vitro contact tests with adult brown dog ticks. Format: in vivo. The protocol: Rhipicephalus sanguineus—In Vitro Contact Tests with Adult Brown Dog Ticks
For the coating of the test tubes, 9 mg of active ingredient are first dissolved in 1 ml of acetone p.a. and then diluted to the desired concentration with acetone p.a. 250 μl of the solution are distributed homogeneously on the inner walls and base of a 25 ml test tube by turning and rocking on an orbital shaker (rocking rotation at 30 rpm for 2 h). With 900 ppm active ingredient solution and internal surface 44.7 cm^2, given homogeneous distribution, an area-based dose of 5 μg/cm^2 is achieved.
After the solvent has evaporated off, the tubes are populated with 5-10 adult dog ticks (Rhipicephalus sanguineus), sealed with a perforated plastic lid and incubated in a horizontal position in the dark at room temperature and ambient humidity. After 48 h, efficacy is determined. To this end, the ticks are knocked to the floor of the tube and incubated on a hotplate at 45-50° C. for not more than 5 min. Ticks which remain motionless on the floor or move in such an uncoordinated manner that they are unable to deliberately avoid the heat by climbing upwards are considered to be dead or moribund.
An efficacy of 100% means that all the ticks were dead or moribund. 0% efficacy means that none of the ticks had been harmed.

The nature of data set [1]: logP determination by HPLC on a reversed-phase column (C18), EEC Directive 79/831 Annex V.A8. The conditions noted are these: for logP^a): HPLC-MS method a), Table I-T3; for logP: HPLC, reversed-phase C18, acetonitrile/water with formic acid, 55° C. The data set is classed as physicochemical.
Data set [2] deals with Ctenocephalides felis. The data set can be described thus: Ctenocephalides felis - oral test. Format: in vivo. The conditions noted are these: application rate 100 ppm in citrated cattle blood; adult fleas; kill after 2 days. An outline of the steps: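 DMSO stock, diluted in citrated cattle blood; ~20 unfed adult fleas feed through parafilm; % kill read at day 2 (0% = none killed).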

The next data set deals with Lucilia cuprina. Kind of data set: Lucilia cuprina test. The data set is classed as in vivo. The conditions noted are these: application rate 100 ppm; L1 larvae in minced horsemeat; kill after 2 days. A digest of the protocol:
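Mortality (%) of first-instar blowfly larvae, about 20 per vessel, recorded 2 days after exposure to compound-treated minced horsemeat. Compound dissolved in dimethyl sulphoxide, then water-diluted to the desired concentration.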

The subject of the next data set is Boophilus microplus. Kind of data set: Boophilus microplus - injection test. The conditions noted are these: application rate 20 μg/animal; injected into engorged adult female ticks; laying of fertile eggs, after 7 days. The data set is classed as in vivo. A digest of the protocol: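 Steps: dilute compound in DMSO to the desired concentration; inject 1 μl abdominally into 5 engorged adult females; keep in climate-controlled dishes; at 7 days score fertile egg laying, incubating doubtful eggs until hatch at about 42 days.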

The test system of data set [3] is Ctenocephalides felis. Kind of data set: Ctenocephalides felis - in vitro contact tests with adult cat fleas. Format: in vivo. Particulars: application rate 5 μg/cm^2 (=500 g/ha), after 48 h (dead or moribund). How it is done: Ctenocephalides felis—In Vitro Contact Tests with Adult Cat Fleas
For the coating of the test tubes, 9 mg of active ingredient are first dissolved in 1 ml of acetone p.a. and then diluted to the desired concentration with acetone p.a. 250 μl of the solution are distributed homogeneously on the inner walls and base of a 25 ml test tube by turning and rocking on an orbital shaker (rocking rotation at 30 rpm for 2 h). With 900 ppm active ingredient solution and internal surface area 44.7 cm^2, given homogeneous distribution, an area-based dose of 5 μg/cm^2 is achieved.
After the solvent has evaporated off, the tubes are populated with 5-10 adult cat fleas (Ctenocephalides felis), sealed with a perforated plastic lid and incubated in a horizontal position at room temperature and ambient humidity. After 48 h, efficacy is determined. To this end, the test tubes are stood upright and the fleas are knocked to the base of the tube. Fleas which remain motionless at the base or move in an uncoordinated manner are considered to be dead or moribund.
100% efficacy means that all the fleas were dead or moribund. 0% efficacy means that no fleas were harmed.

The subject of data set [4] is Boophilus microplus Parkhurst strain, SP-resistant. The data set can be described thus: Boophilus microplus - dip test. The data set is classed as in vivo. The conditions noted are these: application rate 100 ppm; dip of engorged adult female ticks; laying of fertile eggs, after 7 days. The protocol:
Boophilus microplus—Dip Test
Test animals: cattle ticks (Boophilus microplus) Parkhurst strain, SP-resistant
Solvent: dimethyl sulphoxide
10 mg of active ingredient are dissolved in 0.5 ml of dimethyl sulphoxide. For the purpose of producing a suitable formulation, the active ingredient solution is diluted with water to the concentration desired in each case.
This active ingredient formulation is pipetted into tubes. 8-10 adult engorged female cattle ticks (Boophilus microplus) are transferred into a further tube with holes. The tube is immersed into the active ingredient formulation, and all the ticks are completely wetted. After the liquid has run out, the ticks are transferred on filter discs into plastic dishes and stored in a climate-controlled room.
Efficacy is assessed after 7 days by laying of fertile eggs. Eggs which are not visibly fertile are stored in a climate-controlled cabinet until the larvae hatch after about 42 days. An efficacy of 100% means that none of the ticks has laid any fertile eggs; 0% means that all the eggs are fertile.

Where [5] appears, read: application rate 5 μg/cm^2, after 48 h (dead or moribund).
Where [6] appears, read: HPLC-MS, reversed-phase column (C18).
Setting [7] is: HPLC on reversed-phase column (C18).

As to `CCc1cc(C(F)(C(F)(F)F)C(F)(F)F)ccc1-n1cc(-c2ccc(Cl)c(C(=O)NC3(C#N)CC3)c2)cn1` [I-T3-38], the efficacy was 100% in the data set with Musca domestica; 80% with Rhipicephalus sanguineus (setting [5]); 100% in the data set with Ctenocephalides felis [2]; 100% in the data set with Lucilia cuprina; 100% with Boophilus microplus. Further, the “logP^a)” value in data set [1] was determined as 4.5.
In the case of `CCc1cc(C(F)(C(F)(F)F)C(F)(F)F)cc(C)c1-n1cc(-c2ccc(Cl)c(C(=O)NC3(C#N)CC3)c2)cn1` [I-T3-46], the efficacy in the data set with Musca domestica, with Rhipicephalus sanguineus (setting [5]), with Ctenocephalides felis [2], in the data set on Ctenocephalides felis [3], with Lucilia cuprina and with Boophilus microplus was 100% in each case. Further, the “logP^a)” value in data set [1] was determined as 4.6.
Turning to `CCc1cc(C(F)(C(F)(F)F)C(F)(F)F)cc(C)c1-n1cc(-c2ccc(Cl)c(C(=O)NC3CSC3)c2)cn1` [I-T3-47], the efficacy with Rhipicephalus sanguineus (setting [5]), in the data set with Ctenocephalides felis [2], in the data set with Lucilia cuprina and with Boophilus microplus was 100% throughout. Also, the “logP^a)” value in data set [1] is 5.0.
On to `O=C(NC1CC1)c1cc(-c2cnn(-c3ccc(C(F)(C(F)(F)F)C(F)(F)F)cc3C(F)(F)F)c2)ccc1Cl` [I-T3-52], for which the efficacy with Musca domestica, in the data set on Rhipicephalus sanguineus (setting [5]), with Ctenocephalides felis [2], in the data set with Lucilia cuprina and in the data set with Boophilus microplus was 100% each time. In addition, the “logP^a)” value in data set [1] is 4.3.
`CCc1cc(C(F)(F)C(F)(F)F)cc(C)c1-n1cc(-c2ccc(Cl)c(C(=O)NC3(C#N)CC3)c2)cn1` [I-T3-80]: the efficacy in the data set on Musca domestica worked out at 100%; in the data set with Rhipicephalus sanguineus (setting [5]) it was 80%; in data set [4] it was 80%; in the data set with Ctenocephalides felis [2] it was 100%; with Ctenocephalides felis [3], 100%; in the data set with Lucilia cuprina it was 100%. Also, in the data set on Boophilus microplus, the efficacy amounted to 100%. Moreover, the “logP^a)” value in data set [1] is listed as 4.2.
Turning to `O=C(NC1CC1)c1cc(-c2cnn(-c3c(Cl)cc(OC(F)(F)F)cc3Cl)c2)ccc1Cl` [I-T3-88], the efficacy in the data set on Musca domestica was determined as 80%; in the data set with Rhipicephalus sanguineus (setting [5]), 80%; with Ctenocephalides felis [2], 100%; in the data set with Ctenocephalides felis [3] it was 100%; with Lucilia cuprina it was 100%; with Boophilus microplus, 100%. The “logP^a)” value in data set [1] amounted to 3.6.
For `O=C(NC1CC1)c1cc(-c2cnn(-c3ccc(OC(F)(F)F)cc3Cl)c2)ccc1Cl` [I-T3-90], the efficacy in the data set with Musca domestica is 90%; in the data set on Rhipicephalus sanguineus (setting [5]) it was 100%; with Ctenocephalides felis [2], 100%; in the data set on Lucilia cuprina, 100%; with Boophilus microplus it was 100%. Moreover, the “logP^a)” value in data set [1] came out at 3.6.
Usually log P stands for the decadic logarithm of the partition coefficient of the neutral form, usually between octanol and water. Read a low log P as lower lipophilicity. For the compound `Cc1cc(C(F)(C(F)(F)F)C(F)(F)F)cc(C)c1-n1cc(-c2cnc(C)c(C(=O)N(C)C3CC3)c2)cn1` [I-T3-120], the efficacy (in the data set on Musca domestica; in data set [4]; in the data set on Ctenocephalides felis [2]; with Ctenocephalides felis [3]; in the data set with Lucilia cuprina; with Boophilus microplus) was 100% in each case. The “log P” value in data set [1] (setting [6]) worked out at 3.6.
For `Cc1ncc(-c2cnn(-c3c(Cl)cc(C(F)(C(F)(F)F)C(F)(F)F)cc3C(F)(F)F)c2)cc1C(=O)N(C)C1CC1` [I-T3-130], the efficacy (in the data set with Musca domestica; in data set [4]; in the data set on Ctenocephalides felis [2]; in the data set with Ctenocephalides felis [3]; with Lucilia cuprina; in the data set with Boophilus microplus) was 100% each time. In addition, the “log P” value in data set [1] (setting [6]) was found to be 3.8.
Consider `Cc1ncc(-c2cnn(-c3c(Cl)cc(C(F)(C(F)(F)F)C(F)(F)F)cc3Cl)c2)cc1C(=O)N(C)C1CC1` [I-T3-133], for which the efficacy (in the data set on Musca domestica; in data set [4]; in the data set on Ctenocephalides felis [2]; in the data set with Ctenocephalides felis [3]; in the data set on Lucilia cuprina; in the data set with Boophilus microplus) was 100% each time. Moreover, the lipophilicity (log P) in data set [1] (setting [6]) is reported as 3.7.
Take `COc1ncc(-c2cnn(-c3c(C)cc(C(F)(C(F)(F)F)C(F)(F)F)cc3C)c2)cc1C(=O)NC1(C#N)CC1` [I-T3-141]: the efficacy with Musca domestica came out at 100%; with Rhipicephalus sanguineus (application rate 1 μg/cm^2, after 48 h (dead or moribund)), 100%; in the data set with Ctenocephalides felis [2], 100%; in the data set with Lucilia cuprina, 100%; in the data set on Boophilus microplus, 100%. Moreover, the “log P” value in data set [1] (setting [6]) was 4.4.
With `COc1ncc(-c2cnn(-c3c(C)cc(C(F)(C(F)(F)F)C(F)(F)F)cc3C)c2)cc1C(=O)NC1CC1` [I-T3-143], the efficacy with Musca domestica was 100%; in the data set on Rhipicephalus sanguineus (setting [5]) it was 80%; in the data set with Ctenocephalides felis [2], 100%; in the data set on Ctenocephalides felis [3], 100%; in the data set with Lucilia cuprina it was 100%; with Boophilus microplus, 100%. Besides, the lipophilicity (log P) in data set [1] (setting [6]) was found to be 4.6.
For `O=C(NC1CC1)c1cc(-c2cnn(-c3c(Cl)cc(C(F)(C(F)(F)F)C(F)(F)F)cc3OC(F)(F)F)c2)cnc1Cl` [I-T3-189], the efficacy in the data set on Musca domestica, in the data set on Rhipicephalus sanguineus (setting [5]), in the data set on Ctenocephalides felis [2], with Ctenocephalides felis [3] and in the data set on Lucilia cuprina was 100% each time. Besides, the log partition coefficient (log P) in data set [1] (setting [7]) is on record as 4.3.
As for `O=C(NC1CC1)c1cc(-c2cnn(-c3c(Cl)cc(C(F)(C(F)(F)F)C(F)(F)F)cc3OC(F)F)c2)cnc1Cl` [I-T3-196], the efficacy in the data set with Rhipicephalus sanguineus (setting [5]) and with Ctenocephalides felis [3] was 100% in each case. The “log P” value in data set [1] (setting [7]) amounted to 3.9.
As a reminder, the logP is the decadic logarithm of the partition coefficient of the neutral form, usually between octanol and water. A low value points to a more hydrophilic compound. `Cc1cc(C(F)(C(F)(F)F)C(F)(F)F)cc(C)c1-c1cnn(-c2ccc(Cl)c(C(=O)NC3(C#N)CC3)c2)c1` [I-T4-2]: the efficacy in the data set with Musca domestica, in the data set with Rhipicephalus sanguineus (setting [5]), in the data set with Ctenocephalides felis [2], with Ctenocephalides felis [3], with Lucilia cuprina and in the data set on Boophilus microplus was 100% throughout. Moreover, in data set [1], the logP is given as 4.6.
Take `Cc1cc(C(F)(C(F)(F)F)C(F)(F)F)cc(C(F)(F)F)c1-c1cc(-c2cnc(Cl)c(C(=O)NC3(C#N)CC3)c2)on1` [I-T22-4]: the efficacy (in the data set with Rhipicephalus sanguineus (setting [5]); in data set [4]; in the data set with Ctenocephalides felis [2]; with Boophilus microplus) was 100% in each case. The logP in data set [1] stood at 4.4.
For `Cc1cc(C(F)(C(F)(F)F)C(F)(F)F)cc(C(F)(F)F)c1-c1cc(-c2cnc(Cl)c(C(=O)NC3CC3)c2)on1` [I-T22-6], the efficacy is 90% with Musca domestica; 100% with Rhipicephalus sanguineus (setting [5]); 100% in data set [4]; 95% in the data set with Ctenocephalides felis [2]; 100% with Lucilia cuprina; 100% with Boophilus microplus. This compound also showed a logP in data set [1] of 4.5.
